Results reported in article PMC12203311, “Design, synthesis, in silico and in vitro evaluation of pyrrole–indole hybrids as dual tubulin and aromatase inhibitors with potent anticancer activities” (RSC Advances, 2025).

Legend:
[1] = system: CCRF-CEM; assay: NCI60 five-dose screen; type: cell-based; conditions: Homo sapiens, leukemia; for CC50: read-out: LC50 (the source's name)
[2] = system: K-562; assay: NCI60 five-dose screen; type: cell-based; conditions: Homo sapiens, K562, K-562, leukemia; for CC50: read-out: LC50 (the source's name)
[3] = system: MOLT-4; assay: NCI60 five-dose screen; type: cell-based; conditions: Homo sapiens, MOLT-4, leukemia; for CC50: read-out: LC50 (the source's name)
[4] = system: EKVX; assay: NCI60 five-dose screen; type: cell-based; conditions: Homo sapiens, NSC lung cancer; for CC50: read-out: LC50 (the source's name)
[5] = system: HOP-92; assay: NCI60 five-dose screen; type: cell-based; conditions: Homo sapiens, HOP-92, NSC lung cancer; for CC50: read-out: LC50 (the source's name)
[6] = system: NCI-H322M; assay: NCI60 five-dose screen; type: cell-based; conditions: Homo sapiens, NSC lung cancer; for CC50: read-out: LC50 (the source's name)
[7] = system: NCI-H460; assay: NCI60 five-dose screen; type: cell-based; conditions: Homo sapiens, NCI-H460, NSC lung cancer; for CC50: read-out: LC50 (the source's name)
[8] = system: NCI-H522; assay: NCI60 five-dose screen; type: cell-based; conditions: Homo sapiens, NCI-H522, NSC lung cancer; for CC50: read-out: LC50 (the source's name)
[9] = system: HCT-116; assay: NCI60 five-dose screen; type: cell-based; conditions: Homo sapiens, HCT-116, colon cancer; for CC50: read-out: LC50 (the source's name)
[10] = system: HCT-15; assay: NCI60 five-dose screen; type: cell-based; conditions: Homo sapiens, HCT-15, colon cancer; for CC50: read-out: LC50 (the source's name)
[11] = system: HT29; assay: NCI60 five-dose screen; type: cell-based; conditions: Homo sapiens, HT-29, HT29, colon cancer; for CC50: read-out: LC50 (the source's name)
[12] = system: KM12; assay: NCI60 five-dose screen; type: cell-based; conditions: Homo sapiens, KM12, colon cancer; for CC50: read-out: LC50 (the source's name)
[13] = system: SW-620; assay: NCI60 five-dose screen; type: cell-based; conditions: Homo sapiens, SW-620, colon cancer; for CC50: read-out: LC50 (the source's name)
[14] = system: SF-295; assay: NCI60 five-dose screen; type: cell-based; conditions: Homo sapiens, SF-295, CNS cancer; for CC50: read-out: LC50 (the source's name)
[15] = system: SF-539; assay: NCI60 five-dose screen; type: cell-based; conditions: Homo sapiens, SF-539, CNS cancer; for CC50: read-out: LC50 (the source's name)
[16] = system: U251; assay: NCI60 five-dose screen; type: cell-based; conditions: Homo sapiens, U-251, U251, CNS cancer; for CC50: read-out: LC50 (the source's name)
[17] = system: SK-MEL-2; assay: NCI60 five-dose screen; type: cell-based; conditions: Homo sapiens, SK-MEL-2, melanoma; for CC50: read-out: LC50 (the source's name)
[18] = system: SK-MEL-28; assay: NCI60 five-dose screen; type: cell-based; conditions: Homo sapiens, SK-MEL-28, melanoma; for CC50: read-out: LC50 (the source's name)
[19] = system: UACC-257; assay: NCI60 five-dose screen; type: cell-based; conditions: Homo sapiens, UACC-257, melanoma; for CC50: read-out: LC50 (the source's name)
[20] = system: IGROV1; assay: NCI60 five-dose screen; type: cell-based; conditions: Homo sapiens, IGROV-1; IGROV1, ovarian cancer
[21] = system: OVCAR-4; assay: NCI60 five-dose screen; type: cell-based; conditions: Homo sapiens, OVCAR-4, ovarian cancer; for CC50: read-out: LC50 (the source's name)
[22] = system: OVCAR-8; assay: NCI60 five-dose screen; type: cell-based; conditions: Homo sapiens, OVCAR-8, ovarian cancer; for CC50: read-out: LC50 (the source's name)
[23] = system: NCI/ADR-RES; assay: NCI60 five-dose screen; type: cell-based, human; conditions: Homo sapiens, ovarian cancer; for CC50: read-out: LC50 (the source's name)
[24] = system: RXF 393; assay: NCI60 five-dose screen; type: cell-based; conditions: Homo sapiens, RXF 393, renal cancer; for CC50: read-out: LC50 (the source's name)
[25] = system: SN12C; assay: NCI60 five-dose screen; type: cell-based; conditions: Homo sapiens, renal cancer; for CC50: read-out: LC50 (the source's name)
[26] = system: UO-31; assay: NCI60 five-dose screen; type: cell-based; conditions: Homo sapiens, UO-31, renal cancer; for CC50: read-out: LC50 (the source's name)
[27] = system: PC-3; assay: NCI60 five-dose screen; type: cell-based; conditions: Homo sapiens, PC-3, prostate cancer; for CC50: read-out: LC50 (the source's name)
[28] = system: MCF7; assay: NCI60 five-dose screen; type: cell-based; conditions: Homo sapiens, MCF7, breast cancer; for CC50: read-out: LC50 (the source's name)
[29] = system: T-47D; assay: NCI60 five-dose screen; type: cell-based; conditions: Homo sapiens, T47D, breast cancer; for CC50: read-out: LC50 (the source's name)
[30] = system: T47D breast cancer cell line; assay: Cytotoxicity MTT assay, T47D; type: cell-based, human; conditions: Homo sapiens, T47D; MTT, 48 hours
Method in brief: (§1)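 T47D breast cancer and L929 mouse fibroblasts in DMEM/10% FBS, seeded at 10 000 cells/well and grown overnight. Compounds at designated concentrations for 48 h at 37 °C, then 0.5 mg/mL MTT for 3 h. Formazan dissolved in DMSO, A570 read, viability as % of DMSO vehicle.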

[31] = Cytotoxicity MTT assay, L929; type: cell-based, mouse; conditions: mouse, L929 fibroblast cells; MTT, 48 hours
Method in brief: as §1

[32] = system: L929 normal mouse fibroblast cell line; assay: Cytotoxicity MTT assay, L929; type: cell-based; conditions: IC50 (L929)/IC50 (T47D)
Method in brief: as §1

CCc1ccc(/C=N/NC(=O)c2[nH]c3ccc(Br)cc3c2-c2ccccc2)[nH]1 [Derivative 3s, (E)-5-Bromo-N′-((5-ethyl-1H-pyrrol-2-yl)methylene)-3-phenyl-1H-indole-2-carbohydrazide]
GI50 [1]: 0.375 µM | CC50 [1]: > 100 µM | GI50 [2]: 0.338 µM | CC50 [2]: > 100 µM | GI50 [3]: 0.464 µM | CC50 [3]: > 100 µM | GI50 [4]: 0.453 µM | CC50 [4]: 43 µM | GI50 [5]: 2.01 µM | CC50 [5]: 40.1 µM | GI50 [6]: 1.73 µM | CC50 [6]: 64.6 µM | GI50 [7]: 0.396 µM | CC50 [7]: 43.5 µM | GI50 [8]: 0.183 µM | CC50 [8]: 28 µM | GI50 [9]: 0.325 µM | CC50 [9]: 31.9 µM | GI50 [10]: 0.349 µM | CC50 [10]: 37.4 µM | GI50 [11]: 0.298 µM | CC50 [11]: 33.8 µM | GI50 [12]: 0.289 µM | CC50 [12]: 37.5 µM | GI50 [13]: 0.558 µM | CC50 [13]: 43.2 µM | GI50 [14]: 0.246 µM | CC50 [14]: 31.9 µM | GI50 [15]: 0.225 µM | CC50 [15]: 29.8 µM | GI50 [16]: 0.329 µM | CC50 [16]: 36.7 µM | GI50 [17]: 0.647 µM | CC50 [17]: 45.9 µM | GI50 [18]: 0.979 µM | CC50 [18]: 49.8 µM | GI50 [19]: 1.32 µM | CC50 [19]: 64.7 µM | GI50 [20]: 0.612 µM | LC50 (concentration causing 50% net cell kill) [20]: 43.3 µM | GI50 [21]: 2.41 µM | CC50 [21]: 53.7 µM | GI50 [22]: 0.337 µM | CC50 [22]: 25.2 µM | GI50 [23]: 0.253 µM | CC50 [23]: 30.2 µM | GI50 [24]: 0.194 µM | CC50 [24]: 28.9 µM | GI50 [25]: 0.392 µM | CC50 [25]: 30.3 µM | GI50 [26]: 0.644 µM | CC50 [26]: 59.9 µM | GI50 [27]: 0.532 µM | CC50 [27]: > 100 µM | GI50 [28]: 0.369 µM | CC50 [28]: 45.9 µM | GI50 [29]: 0.681 µM | CC50 [29]: 52.7 µM | IC50 [30]: 3.8 ± 1 µM | IC50 at 48 h [31]: 19.5 ± 11.8 µM | Selectivity index (SI) [32]: 5.13

CCc1c[nH]c(/C=N/NC(=O)c2[nH]c3ccc(Br)cc3c2-c2ccccc2)c1 [Derivative 3t, (E)-5-Bromo-N′-((4-ethyl-1H-pyrrol-2-yl)methylene)-3-phenyl-1H-indole-2-carbohydrazide]
GI50 [1]: 0.368 µM | CC50 [1]: > 100 µM | GI50 [2]: 0.348 µM | CC50 [2]: > 100 µM | GI50 [3]: 0.399 µM | CC50 [3]: 94.2 µM | GI50 [4]: 0.448 µM | CC50 [4]: 35.6 µM | GI50 [5]: 2.57 µM | CC50 [5]: 33 µM | GI50 [6]: 2.31 µM | CC50 [6]: 49.8 µM | GI50 [7]: 0.346 µM | CC50 [7]: 20.2 µM | GI50 [8]: 0.206 µM | CC50 [8]: 29.5 µM | GI50 [9]: 0.385 µM | CC50 [9]: 40.3 µM | GI50 [10]: 0.319 µM | CC50 [10]: 35.6 µM | GI50 [11]: 0.308 µM | CC50 [11]: 21 µM | GI50 [12]: 0.325 µM | CC50 [12]: 34.4 µM | GI50 [13]: 0.431 µM | CC50 [13]: 42.5 µM | GI50 [14]: 0.319 µM | CC50 [14]: 24.7 µM | GI50 [15]: 0.203 µM | CC50 [15]: 19.6 µM | GI50 [16]: 0.373 µM | CC50 [16]: 38.2 µM | GI50 [17]: 0.454 µM | CC50 [17]: 43.8 µM | GI50 [18]: 0.839 µM | CC50 [18]: 46.6 µM | GI50 [19]: 1.23 µM | CC50 [19]: 41.3 µM | GI50 [20]: 0.888 µM | LC50 (concentration causing 50% net cell kill) [20]: 48.6 µM | GI50 [21]: 2.17 µM | CC50 [21]: 43 µM | GI50 [22]: 0.316 µM | CC50 [22]: 26 µM | GI50 [23]: 0.247 µM | CC50 [23]: 22 µM | GI50 [24]: 0.217 µM | CC50 [24]: 21 µM | GI50 [25]: 0.372 µM | CC50 [25]: 30 µM | GI50 [26]: 1 µM | CC50 [26]: 40.7 µM | GI50 [27]: 0.529 µM | CC50 [27]: 57 µM | GI50 [28]: 0.375 µM | CC50 [28]: 33.8 µM | GI50 [29]: 1.59 µM | CC50 [29]: 39.3 µM | IC50 [30]: 4.6 ± 2.9 µM | IC50 at 48 h [31]: 7.1 ± 3.6 µM | Selectivity index (SI) [32]: 1.54
